ChEMBL document CHEMBL4513141, “CO-ADD screening of NIH (USA) - Clinical Collection” (2021)
≈ marks a conversion by molar mass, not a printed value. Counter-ions that a name gives are not always drawn.

Assays:
HEK293 = assay: cells; type: functional, Homo sapiens, ATCC CRL1573; details: Homo sapiens, ATCC CRL1573, HEK293; ASSAY_TEST Inhibition of Cell Viability; detection method Resazurin; Fluorescence (ex560/em590); MEDIA DMEM with 10% FBS; plate type 384well; TC; CORNING #3712; time 18 hr
Candida albicans = assay: microbe, parasite or virus in culture; details: ATCC 90028, ASSAY_TEST Inhibition of Fungal Growth, detection method Absorption (OD530), plate type 384well, NBS, CORNING #3640
Description: Antifungal activity against Candida albicans ATCC 90028 (CO-ADD:FG_001); MIC in YNB media using NBS plates, by OD630

Escherichia coli = assay: microbe, parasite or virus in culture; details: ATCC 25922, 18 h, ASSAY_TEST Inhibition of Bacterial Growth, detection method Absorption (OD600), MEDIA CAMHB, plate type 384well, NBS, CORNING #3640
Description: Antibacterial activity against Escherichia coli ATCC 25922 (CO-ADD:GN_001); MIC in CAMBH media using NBS plates, by OD(600)

Acinetobacter baumannii = assay: microbe, parasite or virus in culture; details: ATCC 19606, 18 h, ASSAY_TEST Inhibition of Bacterial Growth, detection method Absorption (OD600), MEDIA CAMHB, plate type 384well, NBS, CORNING #3640
Description: Antibacterial activity against Acinetobacter baumannii ATCC 19606 (CO-ADD:GN_034); MIC in CAMBH media using NBS plates, by OD600

Klebsiella pneumoniae = assay: microbe, parasite or virus in culture; details: ATCC 700603, 18 h, ASSAY_TEST Inhibition of Bacterial Growth, detection method Absorption (OD600), MEDIA CAMHB, plate type 384well, NBS, CORNING #3640
Description: Antibacterial activity against Klebsiella pneumoniae MDR ATCC 70063 (CO-ADD:GN_003); MIC in CAMBH media using NBS plates, by OD(600)

Pseudomonas aeruginosa = assay: microbe, parasite or virus in culture; details: ATCC 27853, 18 h, ASSAY_TEST Inhibition of Bacterial Growth, detection method Absorption (OD600), MEDIA CAMHB, plate type 384well, NBS, CORNING #3640
Description: Antibacterial activity against Pseudomonas aeruginosa ATCC 27853 (CO-ADD:GN_042); MIC in CAMBH media using NBS plates, by OD(600)

Staphylococcus aureus = assay: microbe, parasite or virus in culture; details: ATCC 43300, 18 h, ASSAY_TEST Inhibition of Bacterial Growth, detection method Absorption (OD600), MEDIA CAMHB, plate type 384well, NBS, CORNING #3640
Description: Antibacterial activity against Staphylococcus aureus MRSA ATCC 43300 (CO-ADD:GP_020); MIC in CAMBH media, using NBS plates, by OD(600)

Description for Cryptococcus neoformans: Antifungal activity against Cryptococcus neoformans H99 ATCC 208821 (CO-ADD:FG_002); MIC in YNB media using NBS plates, by Resazurin OD(600-570)

| SMILES | CC50 (HEK293) [µM] | MIC (Cryptococcus neoformans) [µM] | MIC (Candida albicans) [µM] | MIC (Escherichia coli) [µM] | MIC (Acinetobacter baumannii) [µM] | MIC (Klebsiella pneumoniae) [µM] | MIC (Pseudomonas aeruginosa) [µM] | MIC (Staphylococcus aureus) [µM] |
| --- | --- | --- | --- | --- | --- | --- | --- | --- |
| CC1(C)SC2C(NC(=O)C(N)c3ccccc3)C(=O)N2C1C(=O)O (stereo not drawn) | > 10 | > 10 | > 10 | > 10 | > 10 | > 10 | > 10 | > 10 |
| COc1cc2nc(N3CCN(C(=O)c4ccco4)CC3)nc(N)c2cc1OC | > 10 | > 10 | > 10 | > 10 | > 10 | > 10 | > 10 | > 10 |
| CCCCCCCCCOc1ccc2[nH]cc(CCN)c2c1 | 4.05 | > 10 | > 10 | > 10 | > 10 | > 10 | > 10 | > 10 |
| CN1CCN(c2c(F)cc3c(=O)c(C(=O)O)cn4c3c2SCC4)CC1 | > 10 | > 10 | > 10 | 1.25 (≈ 0.454 µg/mL) | > 10 | > 10 | 10 (≈ 3.63 µg/mL) | 2.5 (≈ 0.909 µg/mL) |
| CC1(C)SC2C(NC(=O)Cc3ccccc3)C(=O)N2C1C(=O)O (stereo not drawn) | > 10 | > 10 | > 10 | > 10 | > 10 | > 10 | > 10 | > 10 |
| CO[C@H]1C=CO[C@@]2(C)Oc3c(C)c(O)c4c(O)c(c5c(nc6cc(C)ccn65)c4c3C2=O)NC(=O)C(C)=CC=C[C@H](C)[C@H](O)[C@@H](C)[C@@H](O)[C@@H](C)[C@H](OC(C)=O)[C@@H]1C | > 10 | > 10 | > 10 | 10 (≈ 7.86 µg/mL) | 10 (≈ 7.86 µg/mL) | > 10 | 2.5 (≈ 1.96 µg/mL) | ≤ 0.0781 |
| C=CC[C@@H]1C=C(C)C[C@H](C)C[C@H](OC)[C@H]2O[C@@](O)(C(=O)C(=O)N3CCCC[C@H]3C(=O)O[C@H](/C(C)=C/[C@@H]3CC[C@@H](O)[C@H](OC)C3)[C@H](C)[C@@H](O)CC1=O)[C@H](C)C[C@@H]2OC | > 10 | ≤ 0.0781 | > 10 | > 10 | > 10 | > 10 | > 10 | > 10 |
| CON=C(C(=O)N[C@@H]1C(=O)N2C(C(=O)O)=C(COC(N)=O)CS[C@H]12)c1ccco1 | > 10 | > 10 | > 10 | 10 (≈ 4.24 µg/mL) | > 10 | > 10 | > 10 | 5 (≈ 2.12 µg/mL) |
| CC1(C)SC2C(NC(=O)COc3ccccc3)C(=O)N2C1C(=O)O (stereo not drawn) | > 10 | > 10 | > 10 | > 10 | > 10 | > 10 | > 10 | > 10 |
| NC(=O)OCC(COC(N)=O)c1ccccc1 | > 10 | > 10 | > 10 | > 10 | > 10 | > 10 | > 10 | > 10 |
| Cc1onc(-c2c(Cl)cccc2Cl)c1C(=O)N[C@@H]1C(=O)N2[C@@H]1SC(C)(C)[C@@H]2C(=O)O | > 10 | > 10 | > 10 | > 10 | > 10 | > 10 | > 10 | 0.625 (≈ 0.294 µg/mL) |
| Cc1onc(-c2ccccc2)c1C(=O)NC1C(=O)N2C1SC(C)(C)C2C(=O)O (stereo not drawn) | > 10 | > 10 | > 10 | > 10 | > 10 | > 10 | > 10 | > 10 |
| NC(=O)c1ncn(C2OC(CO)C(O)C2O)n1 (stereo not drawn) | > 10 | > 10 | > 10 | > 10 | > 10 | > 10 | > 10 | > 10 |
| O=C(NC(CO)C(O)c1ccc([N+](=O)[O-])cc1)C(Cl)Cl (stereo not drawn) | > 10 | > 10 | > 10 | 10 (≈ 3.23 µg/mL) | > 10 | > 10 | > 10 | > 10 |
| Cc1nnc(SCC2=C(C(=O)O)N3C(=O)C(NC(=O)Cn4cnnn4)C3SC2)s1 (stereo not drawn) | > 10 | > 10 | > 10 | > 10 | > 10 | > 10 | > 10 | > 10 |
| CO[C@H]1/C=C/O[C@@]2(C)Oc3c(C)c(O)c4c(O)c(c(C=NN5CCN(C6CCCC6)CC5)c(O)c4c3C2=O)NC(=O)/C(C)=C\C=C\[C@H](C)[C@H](O)[C@@H](C)[C@@H](O)[C@@H](C)[C@H](OC(C)=O)[C@@H]1C | > 10 | > 10 | > 10 | 10 (≈ 8.77 µg/mL) | > 10 | > 10 | 10 (≈ 8.77 µg/mL) | ≤ 0.0781 |
| CN(C)[C@@H]1C(=O)C(C(N)=O)=C(O)[C@@]2(O)C(O)=C3C(=O)c4c(O)cccc4[C@@](C)(O)[C@H]3[C@H](O)[C@@H]12 | > 10 | > 10 | > 10 | 5 (≈ 2.3 µg/mL) | > 10 | > 10 | 10 (≈ 4.6 µg/mL) | 1.25 (≈ 0.576 µg/mL) |
| CCOC(=O)CCC(=O)OC1C(OC2C(C)C(OC3CC(C)(OC)C(O)C(C)O3)C(C)C(=O)OC(CC)C(C)(O)C(O)C(C)C(=O)C(C)CC2(C)O)OC(C)CC1N(C)C (stereo not drawn) | > 10 | > 10 | > 10 | > 10 | > 10 | > 10 | > 10 | > 10 |
| CON=C(C(=O)NC1C(=O)N2C(C(=O)O)=C(COC(C)=O)CSC12)c1csc(N)n1 (stereo not drawn) | > 10 | > 10 | > 10 | 0.312 (≈ 0.142 µg/mL) | > 10 | > 10 | > 10 | > 10 |
| CO[C@H]1/C=C/O[C@@]2(C)Oc3c(C)c(O)c4c(O)c(c(C=NN5CCN(C)CC5)c(O)c4c3C2=O)NC(=O)/C(C)=C\C=C\[C@H](C)[C@H](O)[C@@H](C)[C@@H](O)[C@@H](C)[C@H](OC(C)=O)[C@@H]1C | > 10 | > 10 | > 10 | 10 (≈ 8.23 µg/mL) | > 10 | > 10 | 2.5 (≈ 2.06 µg/mL) | ≤ 0.0781 |
| C=CC1=C(C(=O)O)N2C(=O)[C@@H](NC(=O)/C(=N/OCC(=O)O)c3csc(N)n3)[C@H]2SC1 | > 10 | > 10 | > 10 | 2.5 (≈ 1.13 µg/mL) | > 10 | > 10 | > 10 | > 10 |
| CN(C)C1C(=O)C(C(N)=O)=C(O)C2(O)C(=O)C3=C(O)c4c(O)ccc(Cl)c4C(O)C3CC12 (stereo not drawn) | > 10 | > 10 | > 10 | 5 (≈ 2.32 µg/mL) | > 10 | > 10 | 2.5 (≈ 1.16 µg/mL) | 1.25 (≈ 0.581 µg/mL) |
| CC1c2cccc(O)c2C(=O)C2=C(O)C3(O)C(O)=C(C(N)=O)C(=O)C(N(C)C)C3C(O)C21 (stereo not drawn) | > 10 | > 10 | > 10 | 1.25 (≈ 0.556 µg/mL) | > 10 | > 10 | 0.312 (≈ 0.139 µg/mL) | 0.625 (≈ 0.278 µg/mL) |
| O=c1[nH]c(=O)n(C2CC(O)C(CO)O2)cc1F (stereo not drawn) | 2.37 | > 10 | > 10 | 10 (≈ 2.46 µg/mL) | > 10 | 5 (≈ 1.23 µg/mL) | > 10 | ≤ 0.0781 |
| C=CC1=C(C(=O)O)N2C(=O)[C@@H](NC(=O)/C(=N\O)c3csc(N)n3)[C@H]2SC1 | > 10 | > 10 | > 10 | 2.5 (≈ 0.989 µg/mL) | > 10 | 10 (≈ 3.95 µg/mL) | > 10 | 5 (≈ 1.98 µg/mL) |
| CCN(CC)C(=S)SSC(=S)N(CC)CC | 5.04 | 5 (≈ 1.48 µg/mL) | 2.5 (≈ 0.741 µg/mL) | > 10 | > 10 | > 10 | > 10 | > 10 |
| C[C@H]1O[C@H](O[C@H]2[C@H](O)[C@@H](O)[C@@H](O[C@H]3[C@H](O)[C@@H](O)C(O)O[C@@H]3CO)O[C@@H]2CO)[C@H](O)[C@@H](O)[C@@H]1N[C@H]1C=C(CO)[C@@H](O)[C@H](O)[C@H]1O (stereo partly drawn) [ACARBOSE] | > 10 | > 10 | > 10 | > 10 | > 10 | > 10 | > 10 | > 10 |
| CCCCc1oc2ccccc2c1C(=O)c1cc(I)c(OCCN(CC)CC)c(I)c1 [AMIODARONE HYDROCHLORIDE] | > 10 | 10 | > 10 |  | > 10 | > 10 | > 10 | > 10 |
